From patent publication US8911953B2, “TDF-related compounds and analogs thereof, analogs and bioactive fragments” (Thrasos Innovation, Inc., priority 2005, dated 2014)
Positions of bridges follow the written chain, without caps; N, C: chain ends. No end group written: not given here.

B1: BMP-7: recombinant human mature BMP-7 (BMP-7 or TDF-1), positive control therapy (protein)
chain: STGSKQRSQNRSKTPKNQEALRMANVAENSSSDQRQACKKHELYVSFRDLGWQDWIIAPEGYAAYYCEGECAFPLNSYMNATNHAIVQTLVHFINPETVPKPCCAPTQLNAISVLYFDDSSNVILKKYRNMVVRACGCH

Tests used:
[1] = test system: vascular endothelial cells; assay: Smad 1, 5 phosphorylation in vascular endothelial cells (Western blot); format: cell-based; settings: added to vascular endothelial cells in culture
Procedure: (§1) Phosphorylation and nuclear translocation of Smads occurs following the activation of Type I and Type II receptors and subsequent signal transduction to intracellular Smad targets. Phosphorylation and nuclear translocation of R-Smad in HK-2, vascular endothelial, human prostate or other cells by TDFRP compounds is assayed by immuno-fluorescent microscopy methods, using anti-phospho Smad 1/5 antibodies according to the procedure of H Aoki, M Fujii, T Imamura, K Yagi, K Takehara, M Kato and K Miyazono. J. of Cell Sci. 114, 1483-1489, 2001) and by Western blot analysis (FIGS. 2, 3, 18, 2X).
The detection of Smad phosphorylation by Western analysis, for example in LNCaP (prostate cancer cells) or EC (vascular endothelial cells) in culture medium can be examined after exposure to varying concentrations of TDFRP or control compounds. BMP-7 serves as a positive control. Cells are lysed in RIPA lysis buffer (50 mM Tris-HCl at pH 8.0, 150 mM NaCl, 1% NP-40, 0.5% sodium deoxycholate, 0.1% SDS) containing 1 mM PMSF, 1 mM sodium orthovanadate, and 10 ug/mL proteinase inhibitor cocktail. Lysates are incubated on ice for 15 minutes, centrifuged, and transferred supernatant to a clean tube. 50 to 100 ug is used for analysis by SDS-PAGE. Resolved proteins are electro transferred onto PVDF membrane. The blot is blocked by incubating in 3% non-fat dry milk prepared in PBS at room temperature for 1 hour with constant slow agitation. The blot is incubated with 1-2 ug/mL of primary antibody (rabbit anti-phospho-Smad 1) prepared in PBS-milk, overnight with agitation at 4 degree C., washed twice with PBS, and incubated with secondary antibody (anti rabbit HRP conjugated IgG, 1:3000 dilution) at room temperature for 2 hours with agitation. After washing in PBS-0.05% Tween 20 for 5 minutes and rinsing, Smad phosphorylation is detected via an HRP reaction according to manufacturer's instructions (FIGS. 2, 3, 18, 2X).
as §1, with “HK-2” for “HK-2, vascular endothelial, human prostate or other”, “analysis in various cell types” for “analysis”, “27).” for “2X).”
For detection of Smad phosphorylation by Western analysis, LNCaP (prostate cancer cells) or EC (vascular endothelial cells) in culture medium are exposed to varying concentrations of TDFRP or control compounds. BMP-7 served as a positive control. Cells are lysed in RIPA lysis buffer (50 mM Tris-HCl at pH 8.0, 150 mM NaCl, 1% NP-40, 0.5% sodium deoxycholate, 0.1% SDS) containing 1 mM PMSF, 1 mM sodium orthovanadate, and 10 ug/mL proteinase inhibitor cocktail. Lysates are incubated on ice for 15 minutes, centrifuged, and transferred supernatant to a clean tube. 50 to 100 ug is used for analysis by
SDS-PAGE. Resolved proteins are electro transferred onto PVDF membrane. The blot is blocked by incubating in 3% non-fat dry milk prepared in PBS at room temperature for 1 hour with constant slow agitation. The blot is incubated with 1-2 ug/mL of primary antibody (rabbit anti-phospho-Smad 1) prepared in PBS-milk, overnight with agitation at 4 degree C., washed twice with PBS, and incubated with secondary antibody (anti rabbit HRP conjugated IgG, 1:3000 dilution) at room temperature for 2 hours with agitation. After washing in PBS-0.05% Tween 20 for 5 minutes and rinsing, Smad phosphorylation is detected via an HRP reaction according to manufacturer's instructions (FIGS. 3, 27).

NTN mice = assay: Nephrotoxic serum nephritis (NTN) model of chronic renal failure; format: in vivo, mouse; settings: oral 5 mg/kg/24 hr, weeks 6-9
Excerpt: Attenuation of renal fibrosis progression by TDFRP compound in the chronic renal failure mouse model, nephrotoxic serum nephritis (NTN). A: NTN Model Experimental Protocol. Nephrotoxic serum was given intravenously on Day 0 (D0) and animals were sacrificed either at 6 weeks or 9 weeks. Two different drug regimens were used: treatment from weeks 1-6 or from weeks 6-9. B: Kidney section of 6-9 week, vehicle-treated […] animal, C: Kidney section of animal received oral administration of TDFRP compound (SEQ ID NO 45) (5 mg/kg/24 hr) from weeks 6-9.
Renal fibrosis involves interestitial fibrosis, tubular atrophy, and glomerulosclerosis. The mouse nephrotoxic serum nephritis (NTN) renal fibrosis model mimics human chronic renal injury. NTN mice develop glomerulonephritis following injection with nephrotoxic serum (NTS), which progresses to tubulointerstitial disease and eventually renal fibrosis after 6 weeks (see Lloyd, et al. (1997) J. Exp. Med. 185, 1371-1380.; Zeisberg et al. (2003) Nat. Med. 9, 964-968.)
Nephrotoxic serum nephritis (NTN) is a model of progressive chronic renal injury. Mice given injections of nephrotoxic serum (NTS) develop glomerulonephritis, leading to tubulointerstitial disease associated with EMT, and ultimately renal fibrosis, over a period of about six weeks. […] In these studies, BMP-7 was able to restore expression of E-cadherin proteins in previously damaged tubules. […] For a review of the above see, Zeisberg et al., Nature Medicine, 9; 7 pp 964-968, (2003) and Kalluri et al., J. Clin Investigation 112:1776-1784 (2003).

[2] = test system: bladder cancer cells (5637); assay: Cisplatin-induced apoptosis/necrosis in bladder cancer cells; format: cell-based, human; settings: cisplatin at different concentrations
ALK-6 = ALK-6 (Homo sapiens, UniProt O00238); settings: native protein; cited from earlier work
Chain of ALK-6 (O00238 14-502): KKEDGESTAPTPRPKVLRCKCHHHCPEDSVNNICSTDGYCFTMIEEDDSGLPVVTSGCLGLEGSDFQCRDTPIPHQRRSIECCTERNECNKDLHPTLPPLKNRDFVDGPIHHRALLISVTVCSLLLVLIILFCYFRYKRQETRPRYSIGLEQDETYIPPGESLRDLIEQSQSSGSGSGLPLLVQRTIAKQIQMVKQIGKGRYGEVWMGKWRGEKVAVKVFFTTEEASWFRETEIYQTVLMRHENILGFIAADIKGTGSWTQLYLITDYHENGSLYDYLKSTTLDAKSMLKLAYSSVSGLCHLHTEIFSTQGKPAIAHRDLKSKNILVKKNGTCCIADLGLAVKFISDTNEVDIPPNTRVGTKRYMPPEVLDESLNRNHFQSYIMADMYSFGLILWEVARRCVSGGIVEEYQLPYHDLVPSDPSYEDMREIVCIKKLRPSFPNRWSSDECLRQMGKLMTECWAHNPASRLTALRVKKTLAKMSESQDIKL

Row | Molecule | phosphorylation and activation of intracellular Smad 1, 5 [1] | glomerulosclerosis (NTN mice) | matrix deposition (NTN mice) | tubular atrophy (NTN mice) | progression of renal fibrosis (NTN mice; 5 mg/kg) | apoptosis/necrosis induced by cisplatin (interference with anti-tumor activity) [2] | affinity of binding to ALK-6 (ALK-6)
1 | CYFDDSSNVLCKKYRS (disulfide 1-11 (inferred); not fully specified) [SEQ ID NO:45] | phosphorylation and activation of intracellular Smad 1, 5 | attenuated the severity of glomerulosclerosis | attenuated the amount of matrix deposition | attenuated the severity of tubular atrophy | significantly attenuated | does not alter | –
2 | B1 | – | – | – | – | – | – | higher affinity
